Patent US20160106687A1, “HUMAN THERAPEUTIC AGENTS” (Life Plus, LLC, priority 2014, published 2016)

Assays:
Format in all cases: cell-based
[1] = tested on: human prostate cancer cells (22rv1); assay: Cell death in prostate cancer spheroids, PrestoBlue; settings: techniques of Example 1
Procedure: (§1) The respective cells were individually cultured in a growth medium prepared using RPMI-1640 medium containing 11.1 mM D-glucose with 10% fetal bovine serum, 10 mM HEPES, 2 mM L-glutamine, 1 mM sodium pyruvate, 0.05 mM 2-mercaptoethanol, and Antibiotic-Antimycotic. These cells were maintained in T75 tissue culture flasks in a humidified incubator at 37° C. and 5% CO2. The media were changed on a third day after cell plating, and the cells were passaged on day 5 by trypsinization.
(§2) Custom-made micromolds with 100 um diameter wells were loaded with the cells (U.S. Pat. No. 8,735,154, incorporated by reference herein). The media were changed every day by partial replacement. Cell aggregates were allowed to form in the micromolds for 72 hours and then were transferred to a 100 mm non-treated tissue culture dishes for 3 additional days. The spheroids were passed through 70 um and 100 μm cell strainers (#3431751 and #43152, Corning, Tewksbury, Mass.) and maintained in HEPES Balanced Salt Solution comprised of: 20 mM HEPES, 114 mM NaCl, 4.7 mM KCl, 1.2 mM KH2PO4, 1.16 mM MgSO4, 2.5 mM CaCl2, 25.5 mM NaHCO3 and 0.2% bovine serum albumin (fatty acid free), pH 7.2.
(§3) The cells were treated and tested as set forth in Example 1.

[2] = tested on: human ovarian cancer cells (A1847); assay: Cell death in ovarian cancer spheroids, PrestoBlue; settings: techniques of Example 1
Procedure: as §1, §2, §3

[3] = tested on: human lung cancer cells (H358); assay: Cell death in lung cancer spheroids, PrestoBlue; settings: techniques of Example 1
Procedure: as §1, §2
The lymphomas treatment methods used were identical to those described in Example 2 relative to the pediatric leukemia cells, whereas the lung cancer treatment method was the same as described in Example 1.

[4] = tested on: ovarian cancer cells; assay: Synergism with doxorubicin on ovarian cancer spheroids; settings: low doses, up to 0.158 μM
Procedure: In this test, the synergism of GZ17-6.02 with doxorubicin (a common chemotherapy drug) was tested on ovarian cancer cells. In this test, increasing doses of doxorubicin were administered to ovarian cancer spheroids and cell deaths were measured, as described in Example 1. The protocol involved testing doxorubicin alone at various dosages (FIG. 8, doxorubicin alone—closed circles), with comparative tests using the various dosages of doxorubicin in combination with either 0.2 mg/mL (FIG. 8 open circles) or 0.4 mg/mL (FIG. 8 closed triangles) GZ17-6.02. Additionally, the induced cell death results from use of 0.2 mg/mL GZ17-6.02 alone (FIG. 8, line A) and 0.4 mg/mL GZ17-6.02 alone (FIG. 8, line B) were determined.

| SMILES | anticancer effects (cell number versus increasing concentrations), compound alone [1] | anticancer effects (cell number versus increasing concentrations), compound alone [2] | anticancer effects (cell number versus increasing concentrations), compound alone [3] | cell death, doxorubicin alone [4] |
| --- | --- | --- | --- | --- |
| COc1cccc(C=O)c1O [O-vanillin] | demonstrated anticancer effects | demonstrated anticancer effects | demonstrated anticancer effects |  |
| COc1cccc2c1C(=O)c1c(O)c3c(c(O)c1C2=O)C[C@@](O)(C(=O)CO)C[C@@H]3O[C@H]1C[C@H](N)[C@H](O)[C@H](C)O1 [doxorubicin] |  |  |  | ineffective |
| COc1ccc2c3c([nH]c2c1)C(C)=NCC3 [harmaline] | demonstrated anticancer effects | demonstrated anticancer effects | demonstrated anticancer effects |  |
| CC1=NCCc2c1[nH]c1cc(O)ccc21.Cl [harmalol hydrochloride] | demonstrated anticancer effects | demonstrated anticancer effects | demonstrated anticancer effects |  |
| Cc1nccc2c1[nH]c1cc(O)ccc12.Cl [harmole hydrochloride] | demonstrated anticancer effects | demonstrated anticancer effects | demonstrated anticancer effects |  |
| COc1ccc(C(=O)O)cc1O [isovanillic acid] | demonstrated anticancer effects | demonstrated anticancer effects | demonstrated anticancer effects |  |
| COc1ccc(CO)cc1O [isovanillyl alcohol] | demonstrated anticancer effects | demonstrated anticancer effects | demonstrated anticancer effects |  |
| COc1ccc2c3c([nH]c2c1)[C@@H](C)NCC3 [tetrahydro-harmine] | demonstrated anticancer effects | demonstrated anticancer effects | demonstrated anticancer effects |  |
| COc1cc(C=O)ccc1O [vanillin] | demonstrated anticancer effects | demonstrated anticancer effects | demonstrated anticancer effects |  |
